Here are results for 20 molecules from patent US12059400B2, “Medical compound” (VERA SALUS RICERCA S.R.L., priority 2017, dated 2024).

Assay in all cases: Cell proliferation, crystal violet method
What all share (type): cell-based

Test [1] deals with human colon carcinoma cells (HCT116). The conditions noted are these: for IC50: Homo sapiens, HCT-116, crystal violet, spectrophotometer, read-out: IC50 anti-proliferative effect, CRC (HCT116). The procedure: (§1) The compound according to the invention, and in particular the synthetic quercetin derivatives described and illustrated herein were investigated in vitro by using human tumour cells and assessing their impact on the tumour proliferative capacity, with regard to the tumours described above. In particular, the following human tumour cell lines were assessed experimentally: 1) HCT116, colon adenocarcinoma cells; 2) H1299, lung adenocarcinoma cells; 3) A375, melanoma cells, and 4) A431, squamous skin cell carcinoma; 5) 786-0, renal carcinoma cells; 6) PC3, prostate carcinoma cells; 7) BT549, mammary carcinoma cells; 8) CAL27, tongue carcinoma cells (belonging to the head-and-neck carcinomas); 9) HepG2, hepatocellular carcinoma cells; 10) PANC-1, pancreas carcinoma cells; 11) T24, bladder carcinoma cells; 12) OVCAR-3, ovarian carcinoma cells. In addition, a normal human cell line, WS1 (skin fibroblasts) was also treated with the novel synthetic compounds.
(§2) Cell proliferation was quantified by the crystal violet method with a spectrophotometer. In short, after acquiring serial images (0, 24 and 48 hrs) with the EVOS XL Cell Imaging System microscope (Thermo Fisher Scientific), the cells imaged at 48 hrs were fixed with paraformaldehyde (4%) and stained with Crystal Violet (1%). Then, the specific absorbance (λ=590 nm) at 48 hrs was measured with a spectrophotometer (Infinite®200 PRO, Tecan). Data analysis was carried out by using ad-hoc Excel files for graphical representation and statistical processing (t-test). Moreover, the results obtained with Crystal Violet were confirmed by using another cell proliferation assessment method based on the real time cellular analyzer XCELLigence RTCA DP (ACEA Biosciences, Inc.). This tool allows cell growth to be monitored from electrical impedance-derived quantitative values (the so-called Cell Index) measured by tiny electrodes located at the base of the culture wells. Proliferation is monitored for several days (5-7) by setting a Cell Index per minute measure on the instrument. The data are analysed by processing various parameters calculated by the dedicated software, such as the cell duplication time, the slope and the Max Cell Index.
(§3) Cell proliferation was quantitated spectrophotometrically by the crystal violet method.

Test [2] deals with human ovarian carcinoma cells (OVCAR-3). The following applies: for OVCAR-3 cell growth vs vehicle control: 60 μM, FIG. 11a, 11b; for IC50: Homo sapiens, OVCAR-3, crystal violet, spectrophotometer, read-out: IC50 anti-proliferative effect, OCC - (OVCAR). The procedure:
as §1, §2, §3

Test [3] deals with human melanoma cells (A375). The following applies: for IC50: Homo sapiens, A-375, crystal violet, spectrophotometer, read-out: IC50 anti-proliferative effect, Melanoma (A375). The procedure:
as §1, §2, §3

As a reminder, the IC50 is the concentration that gives 50% inhibition. As to `CCCCC/C=C\C/C=C\C/C=C\C/C=C\CCCC(=O)NCCOCCOc1c(-c2ccc(O)c(O)c2)oc2cc(O)cc(O)c2c1=O` [Compound 29e], in test [1] (10 μM and 30 μM, FIG. 15), the “HCT116 cell growth vs vehicle control” value is “significantly inhibited”. Moreover, the IC50 was found to be 4.36 µM in test [1], 16.1 µM in test [2] and 5.89 µM in test [3]. Moreover, the “OVCAR-3 cell growth vs vehicle control” value in test [2] was “significantly inhibit”. The “A375 cell growth vs vehicle control” value in test [3] (10 μM and 30 μM, FIG. 14) is “significantly inhibited”.
Take `O=C(NCCOCCOc1c(-c2ccc(O)c(O)c2)oc2cc(O)cc(O)c2c1=O)c1cc(C(=O)NCCOCCOc2c(-c3ccc(O)c(O)c3)oc3cc(O)cc(O)c3c2=O)cc(C(=O)NCCOCCOc2c(-c3ccc(O)c(O)c3)oc3cc(O)cc(O)c3c2=O)c1` [Compound 22a]: the “HCT116 cell growth vs vehicle control” value in test [1] (30 μM and 100 μM, FIG. 16) is “inhibit”. Further, the concentration for half-maximal inhibition (IC50) in test [1] stood at 49.9 µM; in test [3] it was 136 µM. In addition, the “A375 cell growth vs vehicle control” value in test [3] (30 μM and 100 μM, FIG. 16) is recorded as “inhibit”.
As for `O=C(CCCOc1c(-c2ccc(O)c(O)c2)oc2cc(O)cc(O)c2c1=O)NCC1CCC(CNC(=O)CCCOc2c(-c3ccc(O)c(O)c3)oc3cc(O)cc(O)c3c2=O)CC1` (centres unmarked) [Compound 15d], the “HCT116 cell growth vs vehicle control” value in test [1] (10 μM and 30 μM, FIG. 15) is “significantly inhibited”. Moreover, the IC50 in test [1] is 12.1 µM; in test [3], 7.16 µM. For the same molecule, the “A375 cell growth vs vehicle control” value in test [3] (10 μM and 30 μM, FIG. 14) was “significantly inhibited”.
In the case of `O=C(CCCOc1c(-c2ccc(O)c(O)c2)oc2cc(O)cc(O)c2c1=O)N[C@H]1CCCC[C@H]1NC(=O)CCCOc1c(-c2ccc(O)c(O)c2)oc2cc(O)cc(O)c2c1=O` [Compound 15a], the “HCT116 cell growth vs vehicle control” value in test [1] (10 μM and 30 μM, FIG. 15) is “significantly inhibited”. Moreover, the figures for the IC50 in test [1] and in test [3] were 13.3 µM and 23 µM, respectively. Besides, in test [3] (10 μM and 30 μM, FIG. 14), the “A375 cell growth vs vehicle control” value is recorded as “significantly inhibited”.
Take `CCCCCCCCCCCCCCCC(=O)NCCOCCOc1c(-c2ccc(O)c(O)c2)oc2cc(O)cc(O)c2c1=O` [Compound 29a]: the “HCT116 cell growth vs vehicle control” value in test [1] (10 μM and 30 μM, FIG. 15) is listed as “significantly inhibited”. In addition, the IC50 in test [1] was determined as 15.7 µM; in test [3], 5.21 µM. Also, the “A375 cell growth vs vehicle control” value in test [3] (10 μM and 30 μM, FIG. 14) is reported as “significantly inhibited”.
As to `CCCCCCCCCCCCCCCCCCCCCC(=O)NCCOCCOc1c(-c2ccc(O)c(O)c2)oc2cc(O)cc(O)c2c1=O` [Compound 29b], the IC50 in test [1] and in test [3] was above 1000 µM each time.
Turning to `O=C(CCCOc1c(-c2ccc(O)c(O)c2)oc2cc(O)cc(O)c2c1=O)NCc1ccc(CNC(=O)CCCOc2c(-c3ccc(O)c(O)c3)oc3cc(O)cc(O)c3c2=O)cc1` [Compound 15c], the “HCT116 cell growth vs vehicle control” value in test [1] (10 μM and 30 μM, FIG. 15) is reported as “significantly inhibited”. The IC50 in test [1] came out at 15.8 µM; in test [3], 15.5 µM. For the same molecule, the “A375 cell growth vs vehicle control” value in test [3] (10 μM and 30 μM, FIG. 14) is on record as “significantly inhibited”.
Turning to `O=C(CCCC(=O)NCCOCCOc1c(-c2ccc(O)c(O)c2)oc2cc(O)cc(O)c2c1=O)NCCOCCOc1c(-c2ccc(O)c(O)c2)oc2cc(O)cc(O)c2c1=O` [Compound 19a], the IC50 in test [1] is above 1000 µM.
With `CCCCCCCCCCCCCCCC(=O)NCCc1ccc(OCCCC(=O)NCCOCCOc2c(-c3ccc(O)c(O)c3)oc3cc(O)cc(O)c3c2=O)c(OCCCC(=O)NCCOCCOc2c(-c3ccc(O)c(O)c3)oc3cc(O)cc(O)c3c2=O)c1` [Compound 36], the “HCT116 cell growth vs vehicle control” value in test [1] (30 μM and 100 μM, FIG. 16) was “inhibit”. The values for the IC50 in test [1] and in test [3] were 112 µM and 89.8 µM, respectively. Besides, the “A375 cell growth vs vehicle control” value in test [3] (30 μM and 100 μM, FIG. 16) was “inhibit”.
`O=C(NCCOCCOc1c(-c2ccc(O)c(O)c2)oc2cc(O)cc(O)c2c1=O)C1CC(C(=O)NCCOCCOc2c(-c3ccc(O)c(O)c3)oc3cc(O)cc(O)c3c2=O)CC(C(=O)NCCOCCOc2c(-c3ccc(O)c(O)c3)oc3cc(O)cc(O)c3c2=O)C1` (centres unmarked) [Compound 22b]: the IC50 in test [1] is 407 µM; in test [3] it was above 1000 µM.
Consider `CC/C=C\C/C=C\C/C=C\C/C=C\C/C=C\C/C=C\CCC(=O)NCCOCCOc1c(-c2ccc(O)c(O)c2)oc2cc(O)cc(O)c2c1=O` [Compound 29f], for which the “HCT116 cell growth vs vehicle control” value in test [1] (10 μM and 30 μM, FIG. 15) is recorded as “significantly inhibited”. Also, the IC50 turned out to be 3.08 µM in test [1], 11.8 µM in test [2] and 5.17 µM in test [3]. In addition, the “OVCAR-3 cell growth vs vehicle control” value in test [2] is given as “significantly inhibit”. The “A375 cell growth vs vehicle control” value in test [3] (10 μM and 30 μM, FIG. 14) was “significantly inhibited”.
Take `O=C(NCCOCCOc1c(-c2ccc(O)c(O)c2)oc2cc(O)cc(O)c2c1=O)c1cc(C(=O)NCCOCCOc2c(-c3ccc(O)c(O)c3)oc3cc(O)cc(O)c3c2=O)cc(-c2cc(C(=O)NCCOCCOc3c(-c4ccc(O)c(O)c4)oc4cc(O)cc(O)c4c3=O)cc(C(=O)NCCOCCOc3c(-c4ccc(O)c(O)c4)oc4cc(O)cc(O)c4c3=O)c2)c1` [Compound 25a]: the figures for the IC50 in test [1] and in test [3] were 304 µM and above 1000 µM, respectively.
For `O=C(CCCOc1c(-c2ccc(O)c(O)c2)oc2cc(O)cc(O)c2c1=O)NCCCOCCOCCOCCCNC(=O)CCCOc1c(-c2ccc(O)c(O)c2)oc2cc(O)cc(O)c2c1=O` [Compound 15b], in test [1] (10 μM and 30 μM, FIG. 15), the “HCT116 cell growth vs vehicle control” value was “significantly inhibited”. Further, the IC50 worked out at 18.6 µM in test [1] and 24.6 µM in test [3]. The “A375 cell growth vs vehicle control” value in test [3] (10 μM and 30 μM, FIG. 14) was “significantly inhibited”.
In the case of `CCCCCCCC/C=C\CCCCCCCC(=O)NCCOCCOc1c(-c2ccc(O)c(O)c2)oc2cc(O)cc(O)c2c1=O` [Compound 29c], the “HCT116 cell growth vs vehicle control” value in test [1] (10 μM and 30 μM, FIG. 15) is recorded as “significantly inhibited”. Moreover, the IC50 in test [1] turned out to be 3.64 µM; in test [3], 7.03 µM. Further, the “A375 cell growth vs vehicle control” value in test [3] (10 μM and 30 μM, FIG. 14) is “significantly inhibited”.
Turning to `O=C(NCCOCCOc1c(-c2ccc(O)c(O)c2)oc2cc(O)cc(O)c2c1=O)c1ccc(OCCCCCCOc2ccc(C(=O)NCCOCCOc3c(-c4ccc(O)c(O)c4)oc4cc(O)cc(O)c4c3=O)cc2)cc1` [Compound 19d], the “HCT116 cell growth vs vehicle control” value in test [1] (10 μM and 30 μM, FIG. 15) is given as “significantly inhibited”. In addition, the IC50 stood at 0.74 µM in test [1], 5.01 µM in test [2] and 1.62 µM in test [3]. In addition, the “OVCAR-3 cell growth vs vehicle control” value in test [2] is “significantly inhibit”. Also, the “A375 cell growth vs vehicle control” value in test [3] (10 μM and 30 μM, FIG. 14) was “significantly inhibited”.
On to `O=c1c(OCCOCCO)c(-c2ccc(O)c(O)c2)oc2cc(O)cc(O)c12` [Compound 26], for which the “HCT116 cell growth vs vehicle control” value in test [1] (100 μM, FIG. 3a, 3b, 13a, 13b) was “significantly inhibits”. The figures for the half-maximal inhibitory concentration (IC50) in test [1] and in test [3] were 81.2 µM and 52.3 µM, respectively. Besides, in test [3] (concentration not given, FIG. 12 for Compound 26), the “proliferation of melanoma cells (A375) vs vehicle control” value is recorded as “significantly inhibits”.
Consider `CCCCC/C=C\C/C=C\CCCCCCCC(=O)NCCOCCOc1c(-c2ccc(O)c(O)c2)oc2cc(O)cc(O)c2c1=O` [Compound 29d], for which the “HCT116 cell growth vs vehicle control” value in test [1] (10 μM and 30 μM, FIG. 15) is recorded as “significantly inhibited”. Besides, the IC50 stood at 2.89 µM in test [1] and 7.73 µM in test [3]. The “A375 cell growth vs vehicle control” value in test [3] (10 μM and 30 μM, FIG. 14) was “significantly inhibited”.
For `O=C(NCCOCCOc1c(-c2ccc(O)c(O)c2)oc2cc(O)cc(O)c2c1=O)c1ccc(Oc2ccc(C(=O)NCCOCCOc3c(-c4ccc(O)c(O)c4)oc4cc(O)cc(O)c4c3=O)cc2)cc1` [Compound 19c], the “HCT116 cell growth vs vehicle control” value in test [1] (10 μM and 30 μM, FIG. 15) is given as “significantly inhibited”. In addition, the IC50 in test [1] came out at 1.28 µM; in test [2], 7.44 µM; in test [3] it was 3.95 µM. Further, the “OVCAR-3 cell growth vs vehicle control” value in test [2] was “significantly inhibit”. In addition, the “A375 cell growth vs vehicle control” value in test [3] (10 μM and 30 μM, FIG. 14) is on record as “significantly inhibited”.
On to `NCCOCCOc1c(-c2ccc(O)c(O)c2)oc2cc(O)cc(O)c2c1=O` [Compound 27], for which, in test [1] (100 μM, FIG. 3a, 3b, 13a, 13b), the “HCT116 cell growth vs vehicle control” value is “greater anti-proliferative effects”. In addition, the IC50 in test [1] was determined as 378 µM.
Regarding `COc1ccc(-c2ccc(C(=O)NCCOCCOc3c(-c4ccc(O)c(O)c4)oc4cc(O)cc(O)c4c3=O)cc2)cc1` [Compound 29g], the “HCT116 cell growth vs vehicle control” value in test [1] (10 μM and 30 μM, FIG. 15) was “significantly inhibited”. Besides, the half-maximal inhibitory concentration (IC50) in test [1] was 5.93 µM; in test [3], 7.84 µM. The “A375 cell growth vs vehicle control” value in test [3] (10 μM and 30 μM, FIG. 14) is on record as “significantly inhibited”.
